Laboratory results published in patent US4622401A, “Heterocyclic substituted-amino-pyrazolines” (American Cyanamid Company, priority 1982, dated 1986).

Assays:
[1] = reported by Higgs et al., Biochemical Pharmacology 28 1959 (1979); cited from earlier work
[2] = "writhing syndrome" test for analgesic activity
Source text: A method employed for measuring the in vivo activity of the compounds of the present invention is the "writhing syndrome" test for analgesic activity as described by Seigmund, et al., Proc. Soc, Exp. Biol. and Med., 95:729 (1957) with modifications. Representative compounds of the present invention which are active when tested by the "writhing syndrome" test are: 2-(3-Amino-2-pyrazolin-1-yl)benzothiazole 2-(3-Amino-5-methyl-2-pyrazolin-1-yl)benzothiazole

SMILES	anti-inflammatory activity [1]	analgesic activity in vivo, "writhing syndrome" test [2]
NC1=NN(c2cccc(C(F)(F)F)c2)CC1 [BW 755C, 3-amino-1-[m-(trifluoromethyl)phenyl]-2-pyrazoline]	anti-inflammatory activity	–
NC1=NN(c2nc3ccccc3s2)CC1 [Example 11, 2-(3-Amino-2-pyrazolin-1-yl)benzothiazole]	–	active
CC1CC(N)=NN1c1nc2ccccc2s1 (stereo not drawn) [Example 13, 2-(3-Amino-5-methyl-2-pyrazolin-1-yl)benzothiazole]	–	active
